Two compounds from patent publication US8710017B2, “Human and mouse targeting peptides identified by phage display” (priority 2000, dated 2014) can be followed below.

Assay [1] concerns HUVECs. Put plainly: HUVEC cell growth assay (crystal violet, VEGF-A). The format is cell-based, human. On the procedure: FIG. 25. […] (SEQ ID NO:123) inhibits HUVEC proliferation. Cells were stimulated with VEGF-A (10 ng/ml), and growth was evaluated at the indicated times by a colorimetric assay based on crystal violet staining. Error bars are the standard error of the means of triplicate wells. Each experiment was repeated at least twice with similar results.
HUVECs were seeded in 48-well plates (10^4 cells/well) and allowed to attach for 24 h in complete M199 medium. The cells were then starved in M199 medium containing 2% FCS for 24 h. […] (SEQ ID NO:123) or control […] (SEQ ID NO:124) peptide (1 mM) was added to the wells in medium containing 2% FCS and 10 ng/ml VEGF-A (R&D System, Abingdom, UK). After incubation for the indicated times, cells were fixed in 2.5% glutaraldehyde, stained with 0.1% crystal violet in 20% methanol, and solubilized in 10% acetic acid. All treatments were done in triplicate. Cell growth was evaluated by measuring the O.D. at 590 nm in a microplate reader (Biorad, Hercules, Calif.). A calibration curve was established and a linear correlation between O.D. and cell counts was observed between 10^3 and 10^5 cells.

Assay [2] relates to chicken chorioallantoic membrane (CAM). Put plainly: CAM assay for angiogenesis. In kind it is in vivo. As to the method:
In vivo angiogenesis was evaluated by a CAM assay (Ribatti et al., 1994). Fertilized eggs from White Leghorn chickens were maintained in constant humidity at 37° C. On the third day of incubation, a square window was opened in the eggshell and 2-3 ml of albumen was removed to detach the developing CAM from the shell. The window was sealed with a glass plate of the same size and the eggs were returned to the incubator. At day 8, 1 mm^3 sterilized gelatin sponges (Gelfoam, Upjohn Co, Kalamazoo, Milan) were adsorbed with VEGF-A (20 ng, R&D System) and either […] (SEQ ID NO:123) or control […] (SEQ ID NO:124) peptide (1 mM) in 3 μl PBS and implanted on the top of the growing CAMs under sterile conditions. CAMs were examined daily until day 12 and photographed in ovo with a Leica stereomicroscope. Capillaries emerging from the sponge were counted. The assay was repeated twice.

Assay [3] has as its target T1, Aminopeptidase A (APA, EC 3.4.11.7) (Homo sapiens, UniProt Q07075).
T1 construct: The renal carcinoma cell line SK-RC-49 was transfected with an expression vector encoding full-length APA cDNA; expressed in transfected cells; host or cells: SK-RC-49 renal carcinoma cells, stably transfected (G418)
Nature of the assay: APA enzyme assay (α-glutamyl-p-nitroanilide, SK-RC-49/APA cells). The format is biochemical. As to conditions: highest concentration tested.

Assay [4] deals with HUVECs. Put plainly: HUVEC chemotaxis assay (Boyden chamber, VEGF-A). The format is cell-based, human. On the procedure:
FIG. 24. […] (SEQ ID NO:123) inhibits HUVEC migration. HUVECs were stimulated with VEGF-A (10 ng/ml). The assay was performed in a Boyden microchemotaxis chamber, and cells were allowed to migrate through an 8-μm pore filter for 5 h at 37° C. […] (SEQ ID NO:124) (control) and […] (SEQ ID NO:123) peptides were tested at 1 mM concentration. Migrated cells were stained and five high-power fields (magnitude 100×) for each microwell were counted. Error bars are the standard error of the means of triplicate microwells.
A cell migration assay was performed in a 48-well microchemotaxis chamber (NeuroProbe, Gaithersburg, Md.) according to Bussolini et al. (1995). Polyvinylpyrrolidone-free polycarbonate filters (Nucleopore, Cambridge, Mass.) with 8-μm pores were coated with 1% gelatin for 10 min at room temperature and equilibrated in M199 medium supplemented with 2% FCS. […] (SEQ ID NO:123) or control […] (SEQ ID NO:124) peptide (1 mM) was placed in the lower compartment of a Boyden chamber in M199 medium supplemented with 2% FCS and 10 ng/ml VEGF-A (R&D System). Subconfluent cultures that had been starved overnight were harvested in PBS containing 2.5 mM EDTA, washed once in PBS, and resuspended in M199 medium containing 2% FCS at a final concentration of 2×10^6 cells/ml. After the filter was placed between the lower and upper chambers, 50 μl of the cell suspension was seeded in the upper compartment, and cells were allowed to migrate for 5 h at 37° C. in a humidified atmosphere with 5% CO2. The filter was then removed, and cells on the upper side were scraped with a rubber policeman. Migrated cells were fixed in methanol and stained with Giemsa solution (Diff-Quick, Baxter Diagnostics, Rome, Italy). Five random high-power fields (magnitude 100×) were counted in each well. Each assay was run in triplicate.

A further assay concerns the target T2, APA (SK-RC-49/APA cells) (Homo sapiens, UniProt Q07075).
T2 construct: The renal carcinoma cell line SK-RC-49 was transfected with an expression vector encoding full-length APA cDNA; expressed in transfected cells; host or cells: SK-RC-49 renal carcinoma cells, stably transfected (G418)
Put plainly: Phage binding specificity assay on SK-RC-49/APA cells. As to conditions: soluble peptide in binding medium, not shown. The format is cell-based. As to the method:
The cell binding assay was performed with an input of 10^9 TU as described for the cell panning. The specificity was confirmed by adding […] (SEQ ID NO:123) peptide to the binding medium in increasing concentrations. For phage binding on immunocaptured APA, wells were blocked for 1 h at room temperature with PBS/3% BSA and incubated with 10^9 TU for 1 h at room temperature in 50 μl PBS/3% BSA. After eight washes in PBS/1% BSA/0.01% Tween-20 and two washes in PBS, phage were rescued by adding 200 μl of exponentially growing K91Kan E. coli. Each experiment was repeated at least three times.

In assay [5] the test system is HUVECs. Put plainly: Three-dimensional Matrigel culture of HUVECs (capillary-like network). The format is cell-based, human. The note with it: not shown. As to the method: Matrigel (Collaborative Research, Bedford, Mass.) was added at 100 μl per well to 48-well tissue culture plates and allowed to solidify for 10 min at 37° C. HUVECs were starved for 24 h in M199 medium supplemented with 2% FCS before being harvested in PBS containing 2.5 mM EDTA. 10^4 cells were gently added to each of the triplicate wells and allowed to adhere to the gel coating for 30 min at 37° C. Then, medium was replaced with indicated concentrations of […] (SEQ ID NO:123) or […] (SEQ ID NO:124) peptides in complete medium. The plates were photographed after 24 h with an inverted microscope (Canon). The assay was repeated three times.

Assay [6] addresses T3, β3 integrin cytoplasmic domain (Homo sapiens, UniProt P05106).
T3 construct: recombinant fusion proteins containing β3 or β5 cytoplasmic domains
T3 sequence (P05106 742-788 limits assumed): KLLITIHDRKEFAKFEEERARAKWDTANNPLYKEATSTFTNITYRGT
Put plainly: Binding of Fyn-phosphorylated phage to β3 cytoplasmic domain. The note with it: phage phosphorylated by Fyn versus unphosphorylated phage. As to the method: Phosphorylation of peptide libraries with src family protein kinases (Fyn, c-Src, Lyn, and Syc) and serine/threonine kinases such as a MAP kinase were performed as described previously (Schmitz et al., 1996; Dente et al., 1997; Gram et al., 1997). Briefly, phage particles were collected from culture supernatants by double precipitation with 20% polyethylene glycol 8000 in 2.5 M NaCl. Particles were dissolved at 10^12 particles/ml. Purified phage (10 μl) were incubated for 3 hours at room temperature with different concentrations (35 to 3,500 units) of protein kinases in a reaction buffer volume of 50 μl. The reaction mixtures were transferred to tubes containing 10 μg of agarose-conjugated anti-P-Tyr, anti-P-Ser, or anti-P-Thr monoclonal antibodies to select phage displaying phosphorylated peptides. […] Phosphorylated peptides binding to β3 and β5 cytoplasmic domains were analyzed as described in the previous section.
Randomly selected clones from rounds III and IV were sequenced from a X4YX4 phosphorylated library with Fyn. […] The ratio of binding to β3 or β5 was calculated by dividing the number of β3 or β5 colonies by GST or BSA colonies found after panning. The ratio of binding to β3 or β5 with phosphorylated phage by Fyn versus unphosphorylated phage was calculated by dividing the number of colonies found after the panning. […]

[7] abbreviates: lower concentrations, not shown.

Peptide text beside a SMILES is read from it.

T2 sequence (Q07075 whole entry): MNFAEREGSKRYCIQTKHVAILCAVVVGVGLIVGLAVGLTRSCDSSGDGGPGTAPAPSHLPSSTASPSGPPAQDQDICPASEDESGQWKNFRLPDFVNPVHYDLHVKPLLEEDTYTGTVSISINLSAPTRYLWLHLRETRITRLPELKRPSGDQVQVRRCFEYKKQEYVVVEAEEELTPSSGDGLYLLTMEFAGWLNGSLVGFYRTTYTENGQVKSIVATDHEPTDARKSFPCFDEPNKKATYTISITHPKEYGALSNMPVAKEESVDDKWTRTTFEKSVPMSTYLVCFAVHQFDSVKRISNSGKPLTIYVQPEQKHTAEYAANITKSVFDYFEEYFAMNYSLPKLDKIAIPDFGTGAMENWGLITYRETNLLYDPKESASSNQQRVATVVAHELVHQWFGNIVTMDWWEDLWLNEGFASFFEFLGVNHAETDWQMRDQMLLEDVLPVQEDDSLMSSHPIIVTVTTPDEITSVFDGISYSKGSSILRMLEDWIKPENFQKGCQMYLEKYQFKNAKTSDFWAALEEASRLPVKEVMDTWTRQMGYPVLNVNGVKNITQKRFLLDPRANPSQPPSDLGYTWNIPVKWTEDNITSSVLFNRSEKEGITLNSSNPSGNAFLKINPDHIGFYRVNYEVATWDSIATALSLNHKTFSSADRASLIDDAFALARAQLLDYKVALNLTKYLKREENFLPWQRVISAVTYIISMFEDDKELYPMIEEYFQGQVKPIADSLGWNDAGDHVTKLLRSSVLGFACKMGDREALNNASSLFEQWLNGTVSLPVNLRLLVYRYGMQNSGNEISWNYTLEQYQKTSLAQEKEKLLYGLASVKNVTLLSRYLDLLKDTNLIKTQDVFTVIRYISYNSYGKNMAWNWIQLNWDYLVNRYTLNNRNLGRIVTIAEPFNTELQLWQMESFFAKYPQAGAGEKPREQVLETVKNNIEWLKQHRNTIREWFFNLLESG
T1 sequence (Q07075 whole entry): as above

`CC[C@H](C)[C@H](NC(=O)[C@H](CO)NC(=O)[C@H](CCC(=O)O)NC(=O)[C@H](CS)NC(=O)[C@H](CCC(=O)O)NC(=O)[C@H](CCCNC(=N)N)NC(=O)[C@@H]1CCCN1C(=O)[C@@H](N)CS)C(=O)N[C@@H](CS)C(=O)O` (H-CPRECESIC-OH): the “inhibition of HUVEC proliferation” value in the assay on HUVECs [1] (1 mM, VEGF-A 10 ng/ml, FIG. 25) came out at 50%. Also, the “effect on cell proliferation” value in the assay on HUVECs [1] (setting [7]) was “no significant effect”. Besides, the “inhibition of VEGF-A-induced neovascularization (number of capillaries emerging from the sponge)” value in assay [2] (1 mM, VEGF-A 20 ng, day 12) worked out at 40%. The “effect on the number of growing vessels” value in assay [2] (lower peptide concentrations, not shown) is “no effect”. In addition, the “reduction of APA enzyme activity” value in assay [3] is 60%. Moreover, the “inhibition of chemotaxis of HUVECs” value with HUVECs [4] (1 mM, VEGF-A 10 ng/ml, 5 h, FIG. 24) amounted to 70%. Besides, the “effect on cell migration” value with HUVECs [4] (setting [7]) is reported as “no significant effect”. In addition, the “competition with CPKVCPRECESNC phage for binding to SK-RC-49/APA cells” value at APA (SK-RC-49/APA cells) is “competed”. Further, in the assay with HUVECs [5] (1 mM, 24 h), the “HUVEC morphogenesis / capillary-like network” value is “vessel-like branching structures were significantly fewer and shorter”. In addition, in the assay on HUVECs [5] (increasing concentrations), the “formation of capillary-like network” value is “progressive impairment of the formation of this network”.

In assay [6], MLLGYRFEK came in with a Phos/Unphos of 2.5.
